“Also recorded” adds a separate entry of the source.

For series [1], the system named is LPS-induced RAW 264.7 macrophages. Briefly: PGE2 production inhibition in LPS-induced RAW 264.7 macrophages. The following applies: means ± SD of three independent experiments; for inhibition at 1 µM: RAW264.7, 1 μM; for inhibition at 5 µM: RAW264.7, 5 μM; for inhibition at 10 µM: RAW264.7, 10 μM. It is filed as cell-based. How it is done: Compounds 1b, 1g, 2a, and 2c were able to inhibit more than 50% of the prostaglandin production at a dose 5 μM. The five compounds were able to reduce PGE2 production by over 75% at a dose of 10 μM.
(§1) Cell culture and sample treatment were performed as reported in the literature. The 3-(4,5-dimethylthiazol-2-yl)-2,5-diphenyltetrazolium bromide (MTT) assay for cell viability followed the procedure previously described in the literature. Nitrite determination was carried as described in the literature, and the PGE2 assay was carried as previously described.

In series [2] the test system is inducible nitric oxide synthase (iNOS). Kind of series: LPS-induced iNOS protein expression (SDS-PAGE / immunoblot of cellular lysates). The settings on record: 20 µM; pretreatment 1 h, then LPS (1 μg/mL) 24 h; β-actin reference. It is filed as cell-based. As to the method: As a result of their activity against both NO and PGE2 production and low cellular toxicity, compounds 1b, 1d, 1g, 2a, and 2c were tested for their inhibitory effect on the expression of both iNOS and COX-2. The cellular lysates were prepared from the with- and without-pretreatment tested compounds (5, 10, 20 μM) for one hour and then with LPS (1 μg/mL) for 24 h, using β-actin as a reference. […] Compound 1g might express its inhibitory effect on NO production mainly through inhibition of iNOS protein expression and partially through inhibition of iNOS enzyme activity.
Figure 3 Inhibitory activity of compounds 1b, 1d, 1g, 2a, and 2c on inducible nitric oxide synthase (iNOS) and Cyclooxygenase 2 (COX-2) Cellular lysates were prepared from the with/without pretreatment tested compound (5, 10, and 20 μM) for one hour and then with LPS (1 μg/mL) for 24 h. Total cellular proteins were resolved by sodium dodecyl sulphate-polyacrylamide gel electrophoresis (SDS-PAGE), transferred to Polyvinylidene fluoride (PVDF) membranes, and detected with specific iNOS and COX-2 antibodies. β-actin was used as an internal control.
In general terms: In western blotting, separated proteins are transferred to a membrane and probed.

For series [3], the target named is T1, iNOS (Mus musculus, UniProt P29477).
T1 construct: endogenous in cells; host or cells: RAW 264.7 macrophages, LPS-stimulated
Briefly: iNOS enzyme activity in LPS-pretreated cells (Griess reaction). It is filed as cell-based. The settings on record: 5, 10, or 20 μM for 12 h after LPS (1 µg/mL) 12 h. How it is done: Figure 4 Effect of compounds 1b, 1d, 1g, 2a, and 2c on iNOS activity. Following pretreatment with lipopolysaccharide (LPS, 1 µg/mL) for 12 h and wash with phosphate buffer solution (PBS), cells were treated with 1g (5, 10, or 20 μM) for 12 h N^6-(1-Iminoethyl)-L-lysine. (L-NIL) (40 μM) was used as the positive control in the assay. Levels of NO in culture media were quantified using the Griess reaction assay. Data are presented as the means ± SD of three independent experiments. # p < 0.05 versus the control cells; *** p < 0.001 versus LPS-stimulated cells; * statistical significances were compared using ANOVA and Dunnett’s post hoc test.
On the technique in general: The Griess reaction detects nitrite, a stable product of nitric oxide.

The nature of series [4]: MTT assay for cell viability / cytotoxicity. Format: cell-based. The settings on record: mouse, RAW 264.7 macrophages, means ± SD of three independent experiments. As to the method:
(§2) In addition to NO inhibition, the cytotoxic activity of compounds 1a–i, 2a–i, 3a–h, and 4a–h in RAW 264.7 macrophages were measured using the 3-(4,5-dimethylthiazol-2-yl)-2,5-diphenyltetrazolium bromide (MTT) assay to check whether the effects on the production of NO was caused by nonspecific cytotoxicity.
as §1
For orientation: Tetrazolium dyes change colour on reduction, which living cells bring about.

For series [5], the system named is LPS-induced RAW 264.7 macrophages. Kind of series: Nitric oxide (NO) production inhibition in LPS-induced RAW 264.7 macrophages (nitrite determination). The following applies: for inhibition at 1 µM: RAW264.7, 1 µM; for inhibition at 1 µM / inhibition at 5 µM / inhibition at 10 µM / Nitric Oxide % Inhibition: LPS-induced RAW 264.7 macrophages; for inhibition at 5 µM: RAW264.7, 5 µM; for inhibition at 10 µM: RAW264.7, 10 µM; for IC50: means ± SD of three independent experiments, read-out: NO (IC50). It is filed as cell-based. How it is done:
The ability of a certain molecule to inhibit the production of inflammatory mediator(s) is one of successful approach to treatment both chronic and acute inflammation.
as §1

Series [6] relates to RAW 264.7 macrophages. Kind of series: MTT assay for cell viability / cytotoxicity. It is filed as cell-based. The settings on record: means ± SD of three independent experiments. As to the method:
as §2, §1

[7] abbreviates: Mus musculus, RAW264.7, LPS-induced RAW 264.7 macrophages.
Where [8] appears, read: Mus musculus, RAW264.7, nitric oxide production.

As to `COc1cccc(-c2nn(-c3ccccc3)cc2-c2ccnc(NCCNS(=O)(=O)c3ccc(Br)cc3)c2)c1` [Compound 1b, 4-Bromo-N-(2-((4-(3-(3-methoxyphenyl)-1-phenyl-1H-pyrazol-4-yl)pyridin-2-yl)amino)ethyl)benzenesulfonamide], the melting point (usually the temperature of the solid-liquid transition) is 136 to 138 °C. Moreover, inhibition in series [1] (LPS-induced RAW 264.7 macrophages) was half-maximal at 4.75 ± 0.25 µM (IC50). In series [1] (Mus musculus), 1 µM produced 16.2 ± 0.79% inhibition; the inhibition – broadly, the share of the control response that was lost under treatment – at 5 µM is over 50%; the inhibition at 10 µM came out at 76.9 ± 1.34%. Also, the IC50 (as a rule, the concentration at which inhibition is half-maximal) in series [1] (setting [7]) turned out to be 4.72 µM. Besides, in series [2], the “Inhibition of iNOS expression” value is recorded as “partial inhibitory effect; also recorded: potential iNOS inhibitory effect”. For the same compound, the “Inhibition of iNOS enzyme activity” value in series [3] was “slightly inhibited iNOS enzyme activity in a dose-dependent manner”. This compound also registered an IC50 in series [4] of 254.2 ± 2.54 µM. In addition, in series [5] (Mus musculus), 1 µM produced 12.05 ± 0.11% inhibition, the inhibition at 5 µM was 24.2 ± 0.98% and the inhibition at 10 µM worked out at 68.7 ± 2.47%. In addition, the IC50 in series [5] (setting [8]) is 7.9 ± 0.41 µM.
`COc1cccc(-c2nn(-c3ccccc3)cc2-c2ccnc(NCCNS(=O)(=O)c3ccc(F)cc3)c2)c1` [Compound 1d, 4-Fluoro-N-(2-((4-(3-(3-methoxyphenyl)-1-phenyl-1H-pyrazol-4-yl)pyridin-2-yl)amino)ethyl)benzenesulfonamide] yielded a melting point of 155 to 156 °C. In series [1] (Mus musculus), 1 µM produced 10.3 ± 0.81% inhibition, 5 µM produced 49.6 ± 1.25% inhibition and the inhibition at 10 µM came out at 85.8 ± 2.64%. The same compound showed an IC50 in series [1] (setting [7]) of 5.06 ± 0.21 µM. Further, the “Inhibition of iNOS expression” value in series [2] is “partial inhibitory effect; also recorded: potential iNOS inhibitory effect”. Also, in series [3], the “Inhibition of iNOS enzyme activity” value was “slightly inhibited iNOS enzyme activity in a dose-dependent manner”. The compound also yielded an IC50 in series [4] of 169.2 ± 1.64 µM. In series [5] (Mus musculus), this compound gave an inhibition at 1 µM of 19.79 ± 0.14%, an inhibition at 5 µM of 29.4 ± 0.77% and an inhibition at 10 µM of 61.3 ± 1.33%. Moreover, the IC50 in series [5] (setting [8]) turned out to be 8.2 µM. Besides, the IC50 in series [5] (nitric oxide production) was determined as 8.23 ± 0.32 µM.
In the case of `COc1cccc(-c2nn(-c3ccccc3)cc2-c2ccnc(NCCNS(=O)(=O)c3ccc(C)cc3)c2)c1` [Compound 1f, N-(2-((4-(3-(3-Methoxyphenyl)-1-phenyl-1H-pyrazol-4-yl)pyridin-2-yl)amino)ethyl)-4-methyl benzenesulfonamide], the results for the IC50 in series [6] and in series [5] (nitric oxide production) were 291 ± 1.12 µM and 9.42 ± 0.12 µM, respectively. For the same compound, the figures for the “Nitric Oxide % Inhibition” value in series [5] (1 µM), in series [5] (5 µM) and in series [5] (10 µM) were 16.29 ± 0.10%, 26.54 ± 0.65% and 53.09 ± 2.10%, respectively.
Turning to `COc1cccc(-c2nn(-c3ccccc3)cc2-c2ccnc(NCCNS(=O)(=O)c3ccc(C(F)(F)F)cc3)c2)c1` [Compound 1g, N-(2-((4-(3-(3-Methoxyphenyl)-1-phenyl-1H-pyrazol-4-yl)pyridin-2-yl)amino)ethyl)-4-(trifluoromethyl)benzenesulfonamide], the inhibition at 1 µM in series [1] (Mus musculus) amounted to 19.9 ± 0.89%; in series [5] (Mus musculus), 10.98 ± 0.07%. Further, the inhibition at 5 µM is over 50% in series [1] (Mus musculus) and 23.6 ± 0.54% in series [5] (Mus musculus). Moreover, the inhibition at 10 µM in series [1] (Mus musculus) is 79.3 ± 2.19%; in series [5] (Mus musculus), 60.8 ± 1.75%. Further, the figures for the IC50 in series [1] (setting [7]), in series [4] and in series [5] (setting [8]) were 4.55 ± 0.39 µM, 261.6 ± 1.57 µM and 8.55 ± 0.14 µM, respectively. Besides, in series [2], the “Inhibition of iNOS expression” value is recorded as “complete inhibition; also recorded: potential iNOS inhibitory effect”. Further, the “Inhibition of iNOS enzyme activity” value in series [3] is listed as “slightly inhibited iNOS enzyme activity in a dose-dependent manner”.
For `COc1cccc(-c2nn(-c3ccccc3)cc2-c2ccnc(NCCCNS(=O)(=O)c3ccccc3)c2)c1` [Compound 2a, N-(3-((4-(3-(3-Methoxyphenyl)-1-phenyl-1H-pyrazol-4-yl)pyridin-2-yl)amino)propyl)benzenesulfonamide], the melting point is 119 to 120 °C. In series [1] (Mus musculus), this compound returned an inhibition at 1 µM of 31.1 ± 1.14%, an inhibition at 5 µM of over 50% and an inhibition at 10 µM of 76.9 ± 4.99%. This compound showed an IC50 in series [1] (setting [7]) of 4.87 ± 0.44 µM. This compound returned an IC50 in series [4] of 346 ± 4.21 µM. In series [5] (Mus musculus), this compound had an inhibition at 1 µM of 0.17 ± 0.03%, an inhibition at 5 µM of 30.2 ± 0.27% and an inhibition at 10 µM of 62.8 ± 3.25%. For the same compound, the IC50 in series [5] (setting [8]) was found to be 8.04 ± 0.09 µM.
The compound `COc1cccc(-c2nn(-c3ccccc3)cc2-c2ccnc(NCCCNS(=O)(=O)c3ccc(Cl)cc3)c2)c1` [Compound 2c, 4-Chloro-N-(3-((4-(3-(3-methoxyphenyl)-1-phenyl-1H-pyrazol-4-yl)pyridin-2-yl)amino)propyl)benzenesulfonamide] returned a melting point of 98 to 100 °C. In series [1] (Mus musculus), this compound registered an inhibition at 1 µM of 17.5 ± 1.51%, an inhibition at 5 µM of over 50% and an inhibition at 10 µM of 81.4 ± 2.94%. In addition, in series [1] (setting [7]), the IC50 was found to be 4.68 ± 0.37 µM. This compound had an IC50 in series [4] of 289.9 ± 1.87 µM. In series [5] (Mus musculus), testing at 1 µM gave an inhibition of 0.02 ± 0.01%, the inhibition at 5 µM amounted to 24.7 ± 0.81% and the inhibition at 10 µM turned out to be 59.1 ± 0.93%. In addition, the IC50 in series [5] (setting [8]) was 8.68 ± 0.22 µM.
`Cc1ccc(S(=O)(=O)NCCCNc2cc(-c3cn(-c4ccccc4)nc3-c3cccc(O)c3)ccn2)cc1` [Compound 4e, N-(3-((4-(3-(3-Hydroxyphenyl)-1-phenyl-1H-pyrazol-4-yl)pyridin-2-yl)amino)propyl)-4-methylbenzenesulfonamide] came in with a melting point of 158 to 160 °C. Further, the IC50 in series [4] was 23 ± 0.63 µM. In series [5] (Mus musculus), this compound had an inhibition at 1 µM of 0.69 ± 0.01%, an inhibition at 5 µM of 18.6 ± 0.98% and an inhibition at 10 µM of 59.7 ± 0.7%. For the same compound, the IC50 in series [5] (setting [8]) worked out at 8.82 ± 0.32 µM.
Regarding `O=S(=O)(NCCCNc1cc(-c2cn(-c3ccccc3)nc2-c2cccc(O)c2)ccn1)c1cccc(F)c1` [Compound 4g, 3-Fluoro-N-(3-((4-(3-(3-hydroxyphenyl)-1-phenyl-1H-pyrazol-4-yl)pyridin-2-yl)amino)propyl)benzenesulfonamide], the melting point was in the range of 120 to 122 °C. In series [4], the midpoint of inhibition, the IC50, lay at 9.35 ± 0.32 µM. For the same compound, in series [5] (Mus musculus), the inhibition at 5 µM worked out at 29.5 ± 0.86% and the inhibition at 10 µM was found to be 51.1 ± 1.45%. Further, in series [5] (setting [8]), the IC50 stood at 8.24 ± 0.41 µM.
In series [1] (Mus musculus), `CS(=O)(=O)Nc1ccc([N+](=O)[O-])cc1OC1CCCCC1` [NS-398, N-(2-cyclohexyloxy-4-nitrophenyl)methanesulfonamide, reference compound] showed an inhibition at 1 µM of 90.53 ± 0.53%, an inhibition at 5 µM of 95.78 ± 0.67% and an inhibition at 10 µM of 98.2 ± 1.5%. The IC50 in series [1] (setting [7]) is 0.00625 µM.

For the origin of these results see paper PMC6222820, “Synthesis of New Triarylpyrazole Derivatives Possessing Terminal Sulfonamide Moiety and Their Inhibitory Effects on PGE2 and Nitric Oxide Productions in Lipopolysaccharide-Induced RAW 264.7 Macrophages” (Molecules : A Journal of Synthetic Chemistry and Natural …, 2018).
